# Test results from publication PMC11187217, “Anti-adhesive, anti-biofilm and fungicidal action of newly synthesized gemini quaternary ammonium salts” (Scientific Reports, 2024).
# Tests used:
# [1] = tested on: sheep erythrocytes; assay: Hemolysis test; format: cell-based; conditions: 1.5 h, 37 °C; for Concentration up to which no hemolysis was caused: sheep erythrocytes; for Hemolytic effect on sheep erythrocytes: tested 2.5–1280 µM
# Protocol: The hemolysis test was performed based on the Obłąk et al.[80] method with modification. Sheep blood (5 cm^3) was centrifuged (699 rcf, 15 min), washed several times with PBS buffer (pH 7.4), and suspended in PBS. […] The positive control was 1% SDS and the negative control was PBS. The plates were incubated for 1.5 h at 37 °C. After incubation, the plates were centrifuged (699 rcf, 15 min) and the supernatant was applied to a new titration plate. Absorbance was measured at λ = 540 nm (BioTek 800 TS Absorbance Reader). The experiment was performed in 4 repetitions.
# [2] = tested on: C. albicans ATCC 10231; assay: Adhesion of C. albicans to glass surface; format: cell-based, Candida albicans; conditions: 640 µM
# Protocol: The effect of gemini QAS on the adhesion of C. albicans ATCC 10231 was determined using a modification of the method of Obłąk et al.. […] After incubation, the culture was centrifuged (1000 rcf, 5 min), and the resulting pellet was suspended in PBS (pH 7.4) until OD = 0.8 (λ = 590 nm). • In the case of testing the polystyrene surface, 100 µl of tested gemini QAS at concentrations of 20–1280 µM was added to the wells of a 96-well titration plate, incubated for 2 h at 37 °C, rinsed with sterile distilled water, and then spotted with 100 µl of the obtained culture and incubated at 37 °C for 4 h. After this time, the culture was removed, the plates were rinsed with sterile distilled water and placed in an oven (60 °C, 20 min). Then, crystal violet (0.1%) was added to the wells of the titration plate, stained for 5 min and rinsed with sterile distilled water until all traces of violet were removed from the rinsed water. Then the washing mixture (1% SDS, 50 mmol HCl, 100% isopropanol) was added. The absorbance of the samples was read using a spectrophotometer (BioTek 800 TS Absorbance Reader) at λ = 590 nm. […] Next, the washing mixture (1% SDS, 50 mmol HCl, 100% isopropanol) was added and the absorbance of the samples was read using a spectrophotometer (BioTek 800 TS Absorbance Reader) at λ = 590 nm. […] After this time, the colonies growing on the plates were counted. […]
# [3] = tested on: C. albicans ATCC 10231 biofilm; assay: Biofilm viability (LIVE/DEAD, confocal microscopy); format: cell-based, Candida albicans; conditions: glass surface, SYTO 9 / propidium iodide
# Protocol: The viability of the biofilm formed by C. albicans ATCC 10231 cells was determined using the Filmtracer LIVE/DEAD Biofilm Viability Kit (Invitrogen).
# The C. albicans culture was incubated in YPG medium at 37 °C for 18 h. After incubation, the culture was centrifuged (1000 rcf, 5 min), and the resulting pellet was suspended in PBS (pH 7.4) to obtain an OD = 1.5 (λ = 590 nm). 100 µl of C. albicans cell suspension was placed into the wells of the chamber slide plate and incubated for 24 h at 37 °C. After this time, the culture was removed and the plate was rinsed with sterile mQ water. Then, 200 µl of selected tested surfactants in appropriate concentrations was added to each well and incubated for 4 h. After incubation, the plate was rinsed with PBS, 100 µl of the LIVE/DEAD probe was added, and it was incubated for 30 min in the dark. After this time, the probe was removed and the wells were rinsed twice with PBS. Then, 100 µl of 4% formaldehyde in PBS (pH 7.0) was added and it was incubated for 30 min in the dark. Formaldehyde was removed and the wells were rinsed twice with PBS. After peeling off the walls of the plate, a drop of 50% glycerol in PBS was placed on each field and a glass slide was placed on it. The viability of the biofilm formed by C. albicans cells was imaged using a confocal microscope. The negative control was PBS.
compound,measurement,setting,value
"CCCCCCCCCCCCCCCC(=O)N(CCCN(CCC[N+](C)(C)C)C(=O)CCCCCCCCCCCCCCC)CCC[N+](C)(C)C [2xC16MeCO3G3, dimethyl{{3-[N-(3-{N-[3-(dimethylammonium)propyl]hexadecylamido}propyl}hexadecylamido}propyl}}ammonium dimethylcarbonate]",Concentration up to which no hemolysis was caused,[1],≤ 80 µM
CCCCCCCCCCCC(=O)N(CCCN(CCC[N+](C)(C)C)C(=O)CCCCCCCCCCC)CCC[N+](C)(C)C [2xC12BrG3],Reduction of adhesion of C. albicans cells to glass,[2],approximately 80%
same,Concentration up to which no hemolysis was caused,[1],≤ 20 µM
CCCCCCCCCCCCCCCC(=O)N(CCCN(CCC[N+](C)(C)C)C(=O)CCCCCCCCCCCCCCC)CCC[N+](C)(C)C [2xC16LaG3],Concentration up to which no hemolysis was caused,[1],≤ 40 µM
CCCCCCCCCCCCCCCC(=O)N(CCCN(CCC[N+](C)(C)C)C(=O)CCCCCCCCCCCCCCC)CCC[N+](C)(C)C [2xC16BrG3],Impact on survival of C. albicans biofilm (membrane integrity),[3],strong impact
same,Concentration up to which no hemolysis was caused,[1],≤ 80 µM
"CCCCCCCCCCCC(=O)N(CCCN(CCC[N+](C)(C)C)C(=O)CCCCCCCCCCC)CCC[N+](C)(C)C [2xC12MeCO3G3, dimethyl{{3-[N-(3-{N-[3-(dimethylammonium)propyl]dodecylamido}propyl}dodecylamido}propyl}}ammonium dimethylcarbonate]",Hemolytic effect on sheep erythrocytes,[1],did not cause hemolysis
same,Hemolytic effect on sheep erythrocytes,[1]; listed as dimethylcarbonate with 12-carbon alkyl chains,no hemolytic effect
